According to US12275729B2 (Merck Sharp & Dohme LLC, priority 2017, dated 2025):

Legend:
IDO1 [1] = molecular target: T1, IDO1 (Homo sapiens, UniProt P14902); assay: IDO1 Cellular Assay in HeLa Cells Stimulated with IFNγ; format: cell-based; conditions: about 48 hours, read-out: Hela IC50
IDO1 [2] = molecular target: T1, IDO1; assay: IDO1 Human Whole Blood Assay; format: cell-based; set-up: Human whole blood was drawn in sodium heparin coated tubes from healthy internal donors; from tissue; host or cells: human whole blood from healthy donors, stimulated with LPS and IFNγ; conditions: LPS and IFNγ stimulated

T1 sequence (P14902 whole entry): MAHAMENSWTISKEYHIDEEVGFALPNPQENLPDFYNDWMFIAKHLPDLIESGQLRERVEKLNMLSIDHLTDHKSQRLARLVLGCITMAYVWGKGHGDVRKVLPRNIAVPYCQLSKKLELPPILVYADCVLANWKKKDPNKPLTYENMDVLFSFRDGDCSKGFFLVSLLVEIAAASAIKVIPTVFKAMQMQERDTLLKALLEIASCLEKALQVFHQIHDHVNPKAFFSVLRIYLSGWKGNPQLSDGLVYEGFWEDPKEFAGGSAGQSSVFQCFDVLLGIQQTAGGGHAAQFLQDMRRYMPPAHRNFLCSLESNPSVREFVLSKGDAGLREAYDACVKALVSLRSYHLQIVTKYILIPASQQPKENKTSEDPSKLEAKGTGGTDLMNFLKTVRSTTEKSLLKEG

| SMILES | IC50 (IDO1 [1]) [nM] | IC50 (IDO1 [2]) [nM] |
| --- | --- | --- |
| Cc1nccc(N2CCCc3nc(C(C)(C)C(=O)Nc4ccc(Cl)cc4)ccc32)n1 [Example 390, N-(4-chlorophenyl)-2-methyl-2-(5-(2-methylpyrimidin-4-yl)-5,6,7,8-tetrahydro-1,5-naphthyridin-2-yl)propanamide] | 2.42 | 73 |
| C[C@H](C(=O)Nc1ccc(F)cc1)c1ccc2c(c1)CCCN2C(=O)c1cccc(Cl)c1 (single isomer, unassigned) [Example 52] | 4.9 | 372 |
| CC(C)NC(=O)N1CCCc2cc([C@H](C)C(=O)Nc3ccc(F)cc3)ccc21 [Example 89, 6-{(2S)-1-[(4-fluorophenyl)amino]-1-oxopropan-2-yl}-N-(propan-2-yl)-3,4-dihydroquinoline-1(2H)-carboxamide] | 3.2 | 38 |
| Cc1cncc(N2CCCc3nc(C4(NC(=O)c5ccc(Cl)cc5)CCC4)ccc32)c1 [Example 406, 4-chloro-N-(1-(5-(5-methylpyridin-3-yl)-5,6,7,8-tetrahydro-1,5-naphthyridin-2-yl)cyclobutyl)benzamide] | 3.18 | 2980 |

The next lines start with the values.

| IC50 (IDO1 [1]) [nM] | IC50 (IDO1 [2]) [nM] | SMILES |
| --- | --- | --- |
| 2.1 | 22 | C[C@H](C(=O)Nc1ccc(F)cc1)c1ccc2c(c1)CCCN2C(=O)[C@H]1CCCCO1 (single isomer, unassigned) [Example 87] |
| 1.2 | 12 | O=C([C@H]1CCCCO1)N1CCCc2cc(C3(C(=O)Nc4ccc(F)cc4)CCC3)ccc21 (single isomer, unassigned) [Example 106] |
| 2 | 90 | O=C(OC1CC1)N1CCc2cc(C3(C(=O)Nc4ccc(Cl)cc4)CCC3)ccc21 [Example 273, cyclopropyl 5-{1-[(4-chlorophenyl)carbamoyl]cyclobutyl}-2,3-dihydro-1H-indole-1-carboxylate] |
